Test results taken from patent US9315463B2, “Cyclohexylamine derivatives having β2 adrenergic agonist and M3 muscarinic antagonist activities” (Almirall, S.A., priority 2010, dated 2016).
Where two headings read alike, the source gives them in different places.

How the values were obtained:
[1] = molecular target: human adrenergic beta2 receptor (Homo sapiens (Human), UniProt P07550); experiment: Human adrenergic β2 receptor binding assay (3H-CGP12177, Sf9 membranes)
Method: Test 1: Human Adrenergic β1 and β2 Receptor Binding Assays
The study of binding to human adrenergic beta1 and beta2 receptors was performed using commercial membranes prepared from Sf9 cells where they are overexpressed (Perkin Elmer). The membrane suspensions (16 μg/well for beta1 and 5 μg/well for beta2) in assay buffer (75 mM Tris/HCl with 12.5 mM MgCl2 and 2 mM EDTA pH=7.4) were incubated with 0.14 or 0.6 nM of 3H-CGP12177 (Amersham) for beta 1 and beta 2 receptors respectively in a final volume of 250 μl, in GFC Multiscreen 96 well plates (Millipore) previously treated with assay buffer containing 0.3% PEI (Sigma). Non specific binding was measured in the presence of 1 μM propanolol. Incubation was maintained for 60 minutes at room temperature and with gentle shaking. The binding reactions were terminated by filtration and washing with 2.5 volumes of Tris/HCl 50 mM pH=7.4. The affinity of each test compound to the receptor was determined by using ten different concentrations ran in duplicate. IC50s were calculated using Activity Base software from IDBS and the four parameters-log equation.

[2] = molecular target: human muscarinic M3 receptor (Homo sapiens (Human), UniProt P20309); experiment: Human muscarinic M3 receptor binding assay ([3H]-NMS, CHO-K1 membranes)
Sequence of human muscarinic M3 receptor (P20309 whole entry): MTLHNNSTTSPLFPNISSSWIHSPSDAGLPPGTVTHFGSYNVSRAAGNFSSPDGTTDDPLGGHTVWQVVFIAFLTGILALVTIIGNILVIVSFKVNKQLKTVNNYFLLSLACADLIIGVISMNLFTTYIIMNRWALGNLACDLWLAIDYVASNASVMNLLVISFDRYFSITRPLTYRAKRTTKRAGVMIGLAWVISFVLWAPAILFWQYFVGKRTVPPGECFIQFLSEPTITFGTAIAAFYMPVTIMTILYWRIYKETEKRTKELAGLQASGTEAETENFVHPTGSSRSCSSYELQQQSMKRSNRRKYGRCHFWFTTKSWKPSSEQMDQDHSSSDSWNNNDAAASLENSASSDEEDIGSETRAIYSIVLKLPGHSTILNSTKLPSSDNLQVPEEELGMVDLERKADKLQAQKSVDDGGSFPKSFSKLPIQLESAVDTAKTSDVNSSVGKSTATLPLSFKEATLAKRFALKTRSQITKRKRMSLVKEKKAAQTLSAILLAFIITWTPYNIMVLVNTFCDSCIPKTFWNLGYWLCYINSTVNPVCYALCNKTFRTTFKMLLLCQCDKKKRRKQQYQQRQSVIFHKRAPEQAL
Method: Test 2: Human Muscarinic M1, M2, M3, M4 and M5Receptors Binding Assays
The study of binding to human muscarinic M1, M2, M3, M4 and M5 receptors was performed using commercial membranes (Perkin Elmer) prepared from CHO-K1 cells. Radioligand binding experiments were conducted in 96 polypropylene well plates in a total volume of 200 μl. All reagents were dissolved in assay binding buffer (PBS with calcium and magnesium, SIGMA), except compounds that were dissolved in DMSO 100%. Non-specific binding (NSB) was measured in the presence of 1 μM atropine. [3H]-NMS was used as the radioligand at a concentration of 1 nM for M2, M3 and M5 and 0.3 nM for M1 and M4. [3H]-NMS and antagonists were incubated with membranes that express human muscarinic receptors M1, M2, M3, M4 and M5 at concentrations of 8.1, 10, 4.9, 4.5 and 4.9 μg/well, respectively.
After an incubation period of two hours with gentle shaking, 150 μl of the reaction mix were transferred to 96 GF/C filter plates (Millipore), previously treated with wash buffer (Tris 50 mM; NaCl 100 mM; pH: 7.4), containing 0.05% PEI (Sigma) during one hour. Bound and free [3H]-NMS were separated by rapid vacuum filtration in a manifold from Millipore and washed four times with ice cold wash buffer. After drying 30 min, 30 μl of OPTIPHASE Supermix were added to each well and radioactivity quantified using a Microbeta microplate scintillation counter.
The affinity of each test compound to the receptors was determined by using ten different concentrations ran in duplicate. IC50s were calculated using Activity Base software from IDBS and the four parameters-log equation.

[3] = 3H-CGP12177 displacement, read-out: Binding IC50, nM β2
[4] = [3H]-NMS displacement, read-out: Binding IC50, nM M3

Sequence of human adrenergic beta2 receptor (P07550 whole entry): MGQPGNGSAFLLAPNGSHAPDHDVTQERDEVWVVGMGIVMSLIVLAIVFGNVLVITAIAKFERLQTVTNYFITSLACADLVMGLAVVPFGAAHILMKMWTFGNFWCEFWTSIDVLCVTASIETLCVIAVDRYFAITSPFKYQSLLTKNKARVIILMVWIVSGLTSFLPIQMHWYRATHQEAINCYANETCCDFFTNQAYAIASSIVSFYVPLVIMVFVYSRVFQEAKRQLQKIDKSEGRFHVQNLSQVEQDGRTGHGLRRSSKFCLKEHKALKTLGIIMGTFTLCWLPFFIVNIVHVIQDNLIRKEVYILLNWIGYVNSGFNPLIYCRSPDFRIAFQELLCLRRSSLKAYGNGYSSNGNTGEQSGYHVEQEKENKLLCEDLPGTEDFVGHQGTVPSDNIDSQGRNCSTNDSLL

| SMILES | IC50 ([1]; read-out: Binding IC50, nM β2, 3H-CGP12177 displacement) | IC50 ([2]; read-out: Binding IC50, nM M3, [3H]-NMS displacement) | IC50 [1, 3] | IC50 [2, 4] |
| --- | --- | --- | --- | --- |
| CN(CCCCCCCCCNC[C@H](O)c1ccc(O)c2[nH]c(=O)ccc12)C1CCC(OC(=O)C(O)(c2cccs2)c2cccs2)CC1 (stereo partly drawn) [Example 1, trans-4-[(9-{[(2R)-2-hydroxy-2-(8-hydroxy-2-oxo-1,2-dihydroquinolin-5-yl)ethyl]-amino}nonyl)(methyl)amino]cyclohexyl hydroxy(di-2-thienyl)acetate formiate (2:1)] | 6.4 nM | 0.2 nM |  |  |
| COc1cc(NC(=O)OCCN(C)[C@H]2CC[C@H](OC(=O)C(O)(c3cccs3)c3cccs3)CC2)c(Cl)cc1CNC[C@H](O)c1ccc(O)c2[nH]c(=O)ccc12 [Example 12, trans-4-[{2-[({[2-chloro-4-({[(2R)-2-hydroxy-2-(8-hydroxy-2-oxo-1,2-dihydroquinolin-5-yl)ethyl]amino}methyl)-5-methoxyphenyl]amino}carbonyl)oxy]ethyl}-(methyl)amino]cyclohexyl hydroxy(di-2-thienyl)acetate hydrofluoride] |  |  | 1.6 nM | 1.6 nM |
| COc1cc(NC(=O)CCN(C)[C@H]2CC[C@](C)(OC(=O)C(O)(c3cccs3)c3cccs3)CC2)c(Cl)cc1CNC[C@H](O)c1ccc(O)c2[nH]c(=O)ccc12 [Example 13, trans-4-[(3-{[2-chloro-4-({[(2R)-2-hydroxy-2-(8-hydroxy-2-oxo-1,2-dihydroquinolin-5-yl)ethyl]amino}methyl)-5-methoxyphenyl]amino}-3-oxopropyl)(methyl)amino]-1-methylcyclohexyl hydroxy(di-2-thienyl)acetate] |  |  | 2.2 nM | 2.1 nM |
| COc1cc(NC(=O)CCN(C)[C@H]2CC[C@H](OC(=O)C(O)(c3cccs3)c3cccs3)CC2)c(F)cc1CNC[C@H](O)c1ccc(O)c2[nH]c(=O)ccc12 [Example 16, trans-4-[(3-{[2-fluoro-4-({[(2R)-2-hydroxy-2-(8-hydroxy-2-oxo-1,2-dihydroquinolin-5-yl)ethyl]amino}methyl)-5-methoxyphenyl]amino}-3-oxopropyl)(methyl)amino]-cyclohexyl hydroxy(di-2-thienyl)acetate] |  |  | 4.8 nM | 2 nM |
| CN(CCC(=O)Nc1cc(F)c(CNC[C@H](O)c2ccc(O)c3[nH]c(=O)ccc23)cc1F)[C@H]1CC[C@H](OC(=O)C(O)(c2cccs2)c2cccs2)CC1 [Example 18, trans-4-[(3-{[2,5-difluoro-4-({[(2R)-2-hydroxy-2-(8-hydroxy-2-oxo-1,2-dihydroquinolin-5-yl)ethyl]amino}methyl)phenyl]amino}-3-oxopropyl)-(methyl)amino]cyclohexyl hydroxy(di-2-thienyl)acetate hydrofluoride (1:2)] |  |  | 13 nM | 1.6 nM |
| COc1cc(NC(=O)CCN(C)[C@H]2CC[C@H](OC(=O)C(O)(c3cccs3)c3cccs3)CC2)c(Cl)cc1CCNC[C@H](O)c1ccc(O)c2[nH]c(=O)ccc12 [Example 20, trans-4-[(3-{[2-chloro-4-(2-{[(2R)-2-hydroxy-2-(8-hydroxy-2-oxo-1,2-dihydroquinolin-5-yl)ethyl]amino}ethyl)-5-methoxyphenyl]amino}-3-oxopropyl)-(methyl)amino]cyclohexyl hydroxy(di-2-thienyl)acetate hydrofluoride (1:2)] |  |  | 5.3 nM | 0.7 nM |
| COc1cc(NC(=O)OCCN(C)[C@H]2CC[C@H](OC(=O)C(O)(c3cccs3)c3cccs3)CC2)c(C#N)cc1CNC[C@H](O)c1ccc(O)c2[nH]c(=O)ccc12 [Example 22, trans-4-[{2-[({[2-cyano-4-({[(2R)-2-hydroxy-2-(8-hydroxy-2-oxo-1,2-dihydroquinolin-5-yl)ethyl]amino}methyl)-5-methoxyphenyl]amino}carbonyl)-oxy]ethyl}(methyl)amino]cyclohexyl hydroxy(di-2-thienyl)acetate hydrofluoride (1:2)] |  |  | 4.5 nM | 1.4 nM |
| COc1cc(OCCCCN(C)[C@H]2CC[C@H](OC(=O)C(O)(c3cccs3)c3cccs3)CC2)c(Cl)cc1CNC[C@H](O)c1ccc(O)c2[nH]c(=O)ccc12 [Example 25, trans-4-[{4-[2-chloro-4-({[(2R)-2-hydroxy-2-(8-hydroxy-2-oxo-1,2-dihydroquinolin-5-yl)ethyl]amino}methyl)-5-methoxyphenoxy]butyl}(methyl)amino]cyclohexyl hydroxy(di-2-thienyl)acetate hydrofluoride (1:2)] |  |  | 9.6 nM | 0.3 nM |
| COc1cc(NC(=O)OCCN(C)[C@H]2CC[C@H](OC(=O)C(O)(c3cccs3)c3cccs3)CC2)c(Cl)cc1CNC[C@H](O)c1ccc(O)c2c1OCC(=O)N2 [Example 26, trans-4-[{2-[({[2-chloro-4-({[(2R)-2-hydroxy-2-(5-hydroxy-3-oxo-3,4-dihydro-2H-1,4-benzoxazin-8-yl)ethyl]amino}methyl)-5-methoxyphenyl]amino}carbonyl)-oxy]ethyl}(methyl)amino]cyclohexyl hydroxy(di-2-thienyl)acetate] |  |  | 0.38 nM | 1.7 nM |
| COc1cc(NC(=O)OCCN(C)[C@H]2CC[C@H](OC(=O)[C@](O)(c3ccccc3)C3CCCC3)CC2)c(Cl)cc1CNC[C@H](O)c1ccc(O)c2[nH]c(=O)ccc12 [Example 28, trans-4-[{2-[({[2-chloro-4-({[(2R)-2-hydroxy-2-(8-hydroxy-2-oxo-1,2-dihydroquinolin-5-yl)ethyl]amino}methyl)-5-methoxyphenyl]amino}carbonyl)oxy]ethyl}-(methyl)amino]cyclohexyl (2R)-cyclopentyl (hydroxy)phenylacetate] |  |  | 1.3 nM | 8.5 nM |
| COc1cc(NC(=O)OCCN(C)[C@H]2CC[C@H](OC(=O)[C@](O)(c3cccs3)C3CCCC3)CC2)c(Cl)cc1CNC[C@H](O)c1ccc(O)c2[nH]c(=O)ccc12 [Example 29, trans-4-[{2-[({[2-chloro-4-({[(2R)-2-hydroxy-2-(8-hydroxy-2-oxo-1,2-dihydroquinolin-5-yl)ethyl]amino}methyl)-5-methoxyphenyl]amino}carbonyl)-oxy]ethyl}(methyl)amino]cyclohexyl (2S)-cyclopentyl(hydroxy)-2-thienylacetate] |  |  | 1.1 nM | 3.8 nM |
